Measurements as given in publication PMC7153278, “Discovery of Membrane-Bound Pyrophosphatase Inhibitors Derived from an Isoxazole Fragment” (ACS Medicinal Chemistry Letters, 2020).

Molecular target: Thermotoga maritima mPPase (TmPPase) (Thermotoga maritima, UniProt Q9S5X0)
Test: TmPPase inhibition assay (96-well plate, orthophosphate determination)
Format: biochemical
Conditions: for IC50 [CI95%] / IC50: purified TmPPase; for biological activity (in words): TmPPase; for LE (ligand efficiency): computed using the pIC50 and the Heavy Atom Count (LEHA) normalization method, Discovery Studio; for fold loss in activity compared to the carboxylic acids: 2-bromophenyl carboxylates 25 and 26 versus 5 and 23; call rule not given here
Protocol: The inhibition assay was measured in 96 well plate assay as previously reported.5,6 Briefly, 1 µL of purified TmPPase (13 mg/mL) was reactivated in 99 µL of reactivation buffer (20 mM 2-(N-morpholino) ethanesulfonic acid (MES) pH 6.5, 3.5% (v/v) glycerol, 2 mM dithiothreitol (DTT), 4.5% dodecyl maltoside (DDM) and 12 mg/mL L-α-phosphatidylcholine from soybean) and incubated at 55 °C for 15 min. For the assay, to each tube strips, 0.2 µL of the reactivated enzyme was added to 14.8 µL of reaction buffer (200 mM Tris-Cl pH 8.0, 8.0 mM MgCl2, 333 mM KCl, and 67 mM NaCl) and 25 µL of inhibitor. The reaction mixtures were sealed with an adhesive sealing sheet (Thermo Scientific) and incubated at 71 °C for 5 min. The reactions were started with the addition of 10 µL of 2 mM sodium pyrophosphate, further incubation at 71 °C for 5 min and stopped by placing the reaction mixtures on ice for 10 min. The color development was done with the addition of ammonium heptamolybdate + ascorbic acid solution on ice for 10 min and then 90 µL of arsenic solution, at room temperature, for a minimum of 30 min. 180 µL of each reaction mixtures was then transferred into a clear 96 well polystyrene microplate and the absorbance was measured at 860 nm using a microplate spectrophotometer (MultiSkan Go, Thermo Scientific). The pilot inhibitor screening of 16 phosphate-mimicking fragments was done at 100 μM inhibitor concentration. Further screening was done with three different concentrations; 1 μM, 5 μM and 50 μM for soluble compounds, and 1 μM, 5 μM, and 20 μM for sparingly soluble compounds.6 The best hits were validated using 8 concentrations in triplicate in TmPPase.
The potent hits 12k and 12l compounds were then tested on the P. falciparum (PfPPase-VP1) membrane fractions expressed in baculovirus-infected insect cells (the expression method and further enzyme analysis will be described in more detail elsewhere). Briefly, to each tube strips, 2.4 µL of PfPPase-VP1 membrane fraction (5 mg/mL) was added into 12.6 µL of reaction buffer (200 mM Tris-Cl pH 8.0, 8.0 mM MgCl2, 333 mM KCl, 67 mM NaCl, 3.3 mM NaF, and 17 μM Gramicidin D) and 25 µL of inhibitor. The reaction mixtures were incubated at 30 °C for 5 min and the assay was started by the addition of 10 µL of 2 mM sodium pyrophosphate and further incubation at 30 °C for 10 min. The reaction termination and color development were done as before.
The in vitro anti-plasmodial activity assay strain 3D7 was maintained in culture as described previously.7 Briefly, parasites were cultured in O+ human erythrocytes at 5% haematocrit in RPMI - 1640 medium supplemented with 0.5% Albumax II (Gibco, Carlsbad, CA, USA), 200 μM hypoxanthine (Sigma, St. Louis, MO, USA) and 20 μg/mL gentamycin (Gibco). Parasites were synchronized with the sorbitol method as described. 8 Test compound was dissolved in DMSO to make a stock solution of 10 mM. Two -fold serial dilutions of the test compound were made in the culture medium to cover the range of 400 µM – 400 nM. Fifty microliters of each dilution were mixed in 96 well plate with 150 µL of 2% haematocrit of 0.5% parasitemia (ring stage). DMSO concentration in the highest compound concentration w as 0.1%. After 72 h incubation at 37 °C, the parasite growth was quantified using fluorescent SYBR Green I ® -based assay as described. 9 The half-maximal inhibitory concentration (IC 50) of the test compound was assessed using the non-linear regression fit model in Prism 7 (GraphPad Software). The potent anti-malarial drug, artemisinin, was use in parallel as a positive control. Each concentration of the test compound was tested in duplicate and the assay was repeated three times. The mean and standard deviation of the three repeats were used to estimate the IC50.
IC50 determinations were done using R 3.6.110 and the n-parameter logistic regression (nplr) package11 version 0.1-7. In this package, the weighted nplr, given x (compound concentrations) and […]

[1] = 95% confidence interval in square brackets
[2] = IC50 [CI95%] (µM), unrounded values of the molecular formula strings file
[3] = IC50 [CI95%], 95% confidence interval in square brackets

Chain of Thermotoga maritima mPPase (TmPPase) (Q9S5X0 whole entry): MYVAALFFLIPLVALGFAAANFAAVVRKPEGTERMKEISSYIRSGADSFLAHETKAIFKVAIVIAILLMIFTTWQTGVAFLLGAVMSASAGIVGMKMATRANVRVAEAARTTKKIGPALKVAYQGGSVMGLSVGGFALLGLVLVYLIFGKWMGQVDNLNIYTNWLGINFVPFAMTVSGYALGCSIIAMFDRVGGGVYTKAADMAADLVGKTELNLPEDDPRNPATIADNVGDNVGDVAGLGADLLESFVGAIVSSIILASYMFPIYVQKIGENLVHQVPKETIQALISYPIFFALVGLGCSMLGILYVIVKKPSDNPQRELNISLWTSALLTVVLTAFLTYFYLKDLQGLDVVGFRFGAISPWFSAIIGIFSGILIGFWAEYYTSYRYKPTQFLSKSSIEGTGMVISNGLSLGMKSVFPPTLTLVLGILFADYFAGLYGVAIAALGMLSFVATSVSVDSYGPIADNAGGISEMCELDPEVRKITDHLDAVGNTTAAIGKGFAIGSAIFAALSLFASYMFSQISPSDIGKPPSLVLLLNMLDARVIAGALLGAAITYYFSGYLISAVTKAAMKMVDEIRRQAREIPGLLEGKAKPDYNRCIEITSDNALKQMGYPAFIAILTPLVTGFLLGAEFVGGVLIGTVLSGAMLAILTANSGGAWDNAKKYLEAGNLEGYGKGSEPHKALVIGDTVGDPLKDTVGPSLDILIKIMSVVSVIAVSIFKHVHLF

SMILES | IC50 [CI95%] [1] | other results
CCOC(=O)c1cc(-c2ccc(C(=O)OC)cc2)on1 [Compound 10d] | Inactive | –
Nc1ccc(S(=O)(=O)NCC(=O)O)cc1 [SI-8] | Inactive | –
CCOC(=O)c1cc(-c2ccc(OC)c(S(=O)(=O)Nc3ccc(F)c(Cl)c3)c2)on1 [SI-31] | – | IC50 [2]: 58 µM; IC50 [3]: 58 µM
CC(C)(C)c1cc(CO)cc(C(C)(C)C)c1 [SI-46] | Inactive | –
CCOC(=O)c1cc(-c2cccc(OC)c2)on1 [Compound 10f] | Inactive | –
O=C(O)CN1C(=O)c2ccccc2S1(=O)=O [SI-9] | Inactive | –
CS(=O)(=O)Nc1ccc(C#N)cc1 [SI-12] | Inactive | –
CCOC(=O)c1cc(-c2ccc(OC)cc2)on1 [Compound 10g] | Inactive | –
CCOC(=O)c1cc(-c2ccc(OC)c(S(=O)(=O)N3CCc4ccccc43)c2)on1 [SI-25] | Inactive | –
CCOC(=O)c1cc(-c2ccc(OC)c(S(=O)(=O)Nc3ncccc3C)c2)on1 [SI-18] | Inactive | –
CCOC(=O)c1cc(-c2csc(CS(C)(=O)=O)n2)on1 [SI-13] | Inactive | –
CC(C)(C)c1cc(CC(=O)O)cc(C(C)(C)C)c1 [SI-42] | Inactive | –
CCOC(=O)c1cc(-c2ccc(OC)c(S(=O)(=O)Nc3ccc(F)cc3Cl)c2)on1 [SI-29] | – | IC50 [2]: 180 µM; IC50 [3]: 180 µM
CCOC(=O)c1cc(-c2ccc(OC)c(S(=O)(=O)N3CC(=O)Nc4ccccc43)c2)on1 [SI-21] | Inactive | –
CC1(C)CS(=O)(=O)N(c2ccc(S(=O)(=O)Cl)cc2)C1=O [SI-5] | Inactive | –
O=C(O)c1cc(-c2ccccc2)on1 [Compound 11a] | – | biological activity (in words): inactive
CCOC(=O)c1cc(-c2ccccc2)[nH]n1 [SI-50] | Inactive | –
O=C(O)c1cc(-c2cccc(-c3cc(C(=O)O)no3)c2)on1 [Compound 11n] | – | biological activity (in words): neither the carboxylic acid 11n nor the ester 10n were notably active
CCOC(=O)c1cc(-c2ccccc2C(=O)OC)on1 [Compound 10b] | Inactive | –
CC(C)(C)c1cccc(-c2cc(C(=O)Oc3ccccc3Br)no2)c1 [Compound 12j] | – | LE (ligand efficiency): 0.20
Cc1cccc(-c2cc(C(=O)Oc3ccccc3Br)no2)c1 [Compound 12i] | – | LE (ligand efficiency): 0.23

SMILES | IC50 [CI95%] [1] | other results
CC(C)(C)c1cc(C(=O)OCCN2CCOCC2)cc(C(C)(C)C)c1 [SI-49] | – | IC50 [2]: 340 µM; IC50 [3]: 340 µM
O=C(O)c1cc(-c2ccc([N+](=O)[O-])cc2)on1 [Compound 11h] | – | biological activity (in words): did not lead to the desired activity
CCOC(=O)c1cc(-c2ccc(OC)c(S(=O)(=O)N3CCCC3)c2)on1 [SI-27] | Inactive | –
CCOC(=O)c1cc(-c2ccc(OC)c(S(=O)(=O)NC3CCCc4ccccc43)c2)on1 (stereo not shown) [SI-19] | – | IC50 [2]: 29.1 µM; IC50 [3]: 29 µM; LE (ligand efficiency): 0.14
O=C(O)c1ccc2c(c1)B(O)OC2 [SI-3] | Inactive | –
CCOC(=O)c1cc(-c2ccc([N+](=O)[O-])cc2)on1 [Compound 10h] | Inactive | –
CC(C)(C)c1cc(C(N)=O)cc(C(C)(C)C)c1 [SI-43] | Inactive | –
CC(C)(C)c1cc(C(=O)NCCN2CCOCC2)cc(C(C)(C)C)c1 [SI-48] | Inactive | –
O=C(O)c1cc(-c2cc(C(F)(F)F)cc(C(F)(F)F)c2)on1 [Compound 11m] | – | biological activity (in words): did not lead to the desired activity
COc1ccc(-c2cc(C(=O)O)no2)cc1S(=O)(=O)N1CCCC1 [SI-28] | Inactive | –
CCOC(=O)c1cc(-c2ccc(OC)c(S(=O)(=O)N3CCOCC3)c2)on1 [SI-23] | Inactive | –
Cc1c(-c2cc(C(=O)O)no2)cnn1C [Compound 6] | Inactive | biological activity (in words): lacked biological activity
Cc1nc(-c2cc(C(=O)Oc3ccccc3Br)no2)cs1 [Compound 25] | – | fold loss in activity compared to the carboxylic acids: 27 fold
O=c1[nH]c2ccc(S(=O)(=O)CCO)cc2o1 [Compound 2] | – | LE (ligand efficiency): 0.27
O=C(Oc1ccccc1Br)c1cnc(-c2ccccc2)s1 [Compound 26] | – | fold loss in activity compared to the carboxylic acids: 1.6 fold; LE (ligand efficiency): 0.20
CC(C)(C)c1cc(C(=O)Nc2ccccc2Br)cc(C(C)(C)C)c1 [Compound 15] | – | LE (ligand efficiency): 0.18
CCOC(=O)c1cc(-c2cccc(C(C)(C)C)c2)on1 [Compound 10j] | Slightly active | IC50 [2]: 1210 µM
Cc1cc(C)cc(-c2cc(C(=O)Nc3ccccc3Br)no2)c1 [Compound 28] | – | biological activity (in words): inactive
O=C(O)c1csc(-c2ccc(C(F)(F)F)cc2)n1 [SI-52] | Inactive | –
Nc1nnnn1CC(=O)O [SI-11] | Inactive | –
CCOC(=O)c1cc(-c2cccc(C)c2)on1 [Compound 10i] | Inactive | –

SMILES | IC50 [CI95%] [1] | other results
CCOC(=O)c1cc(-c2ccccc2OC)on1 [Compound 10e] | Inactive | –
CCOC(=O)c1cc(-c2ccc(OC)c(S(=O)(=O)N3CCOc4ccccc43)c2)on1 [SI-22] | Inactive | –
CC(C)(C)c1cc(C(O)CC(=O)NN)cc(C(C)(C)C)c1 (stereo not shown) [SI-44] | Inactive | –
CCOC(=O)c1cc(-c2csc(CS(=O)(=O)c3ccccn3)n2)on1 [SI-14] | Inactive | –
CC(C)(C)c1cc(C(=O)Nc2nccs2)cc(C(C)(C)C)c1 [Compound 13] | – | LE (ligand efficiency): 0.20
CCOC(=O)c1cc(-c2ccc([N+](=O)[O-])cc2)[nH]n1 [SI-51] | Inactive | –
O=C(Oc1ccccc1Br)c1cc(-c2ccc([N+](=O)[O-])cc2)[nH]n1 [SI-53] | Slightly | –
CCOC(=O)c1cc(-c2ccc(OC)c(S(=O)(=O)Nc3ccc(Cl)cc3)c2)on1 [SI-33] | – | IC50 [2]: 280 µM; IC50 [3]: 280 µM
CCOC(=O)c1cc(-c2csc(Nc3ccccc3)n2)on1 [SI-16] | Inactive | –
O=C(Oc1ccccc1Br)c1cc(-c2ccc([N+](=O)[O-])cc2)on1 [Compound 12h] | – | IC50 [2]: 19.6 µM; IC50 [3]: 20 µM; LE (ligand efficiency): 0.19
CC(C)(C)c1cc(CN)cc(C(C)(C)C)c1 [SI-45] | Inactive | –
O=C(O)c1cc(-c2ccc([N+](=O)[O-])cc2)[nH]n1 [Compound 22] | Inactive | –
O=C(O)c1cnc(-c2ccccc2)s1 [Compound 23] | – | LE (ligand efficiency): 0.32
CCOC(=O)c1cc(-c2csc(-c3cccc(Cl)c3)n2)on1 [SI-15] | Inactive | –
O=C(O)c1ccc2c(c1)S(=O)(=O)NC2=O [SI-6] | Inactive | –
Nc1ccc(S(=O)(=O)NC2=NCCS2)cc1 [SI-2] | Inactive | –
CC(C)(C)c1cc(C(=O)Nc2ccccc2C(=O)O)cc(C(C)(C)C)c1 [SI-47] | Inactive | –
CC(C)(C)c1cc(CCC(=O)O)cc(C(C)(C)C)c1 [Compound 20] | Inactive | –
CCOC(=O)c1cc(-c2ccc(OC)c(S(=O)(=O)Nc3ccc(Cl)cc3F)c2)on1 [SI-32] | – | IC50 [2]: 122 µM; IC50 [3]: 122 µM
Cc1ccc(-c2cc(C(=O)Oc3ccccc3Br)no2)cc1C [SI-54] | – | IC50 [2]: 17.4 µM; IC50 [3]: 17 µM; LE (ligand efficiency): 0.20
